Source: the METLIN SMRT retention time set (Domingo-Almenara et al. 2019)

Assay: gradient 5% acetonitrile 3 min, to 50% in 2 min, to 85% in 15 min, held 3 min, 100 µL/min
Conditions: column: Zorbax Extend-C18 2.1 x 50 mm; eluents: water / acetonitrile, 0.1% formic acid
Procedure, shortened: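 The system's dead and dwell volumes were 40 μL and 900 μL, with a Zorbax Extend-C18 column (2.1 × 50 mm, 1.8 μm) run at 100 μL/min in water and acetonitrile containing 0.1% formic acid each. Pure standards were analyzed in mixtures of ~100 molecules by HPLC–quadrupole time-of-flight mass spectrometry in positive and negative ionization mode. Retention time was assigned from computationally picked, manually inspected adduct peaks.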
In the case of O=C(CSc1nc2ccccc2nc1SCC(=O)N1CCCC1)N1CCCC1, the RP-LC retention time is reported as 743 s. Cc1cn(C)c(CC(=O)NCc2ccc3c(c2)OCO3)c1C(=O)O showed an RP-LC retention time of 687 s. Work on CC(C)c1cc(C(=O)Nc2cccc(Cl)c2)nc2ccnn12 yielded an RP-LC retention time of 1230 s. Compound CC1=C(C(=O)NCCCN2CC(C)CC(C)C2)C2(CCN(Cc3ccccc3)CC2)OC1=O (centres undefined) has an RP-LC retention time of 567 s. Work on Cc1nc(C)c(C(=O)N2CCC(Oc3ccc(-c4noc(C5CC5)n4)cc3)C2)s1 (centres undefined) yielded an RP-LC retention time of 860 s. With O=C(Nc1ccccc1Cl)c1c(O)c2cccnc2n(-c2ccc(F)cc2)c1=O the RP-LC retention time was 1270 s. For Cc1ccc(CNS(=O)(=O)c2cc(-c3[nH]ncc3C(=O)N3CCCC3)oc2C)o1, the RP-LC retention time was 674 s. Compound Cc1cc(C)cc(NC(=O)COc2cc(C)nc(N3CCN(c4ccccc4)CC3)n2)c1 has an RP-LC retention time of 915 s. With Cc1ccccc1S(=O)(=O)N1CCCN(c2ccc(=O)n(-c3ccccc3)n2)CC1 the RP-LC retention time was 859 s. Compound CSc1ccc(Cc2nnc(NC(=O)c3cccc(C(F)(F)F)c3)o2)cc1 has an RP-LC retention time of 907 s. CCn1cc(CN2CCC(C(=O)NCc3ccc(N(C)C)cc3)CC2)c2cc(OC)ccc21 gave an RP-LC retention time of 603 s. COc1ccc(CNC(=O)C2(C)CCN(C(=O)Nc3ccc(F)cc3)CC2)cc1 gave an RP-LC retention time of 761 s. Work on Cn1nc(C(=O)N2CCOCC2)c2c1CCN(C(=O)Nc1ccc(F)c(Cl)c1)C2 yielded an RP-LC retention time of 1070 s. For CCOc1ccccc1C(=O)NCCS(=O)(=O)N1CCN(c2ccccn2)CC1, the RP-LC retention time was 597 s. For Cc1cccc(Nc2nc(C(=O)NCCc3ccco3)nc3ccccc23)c1, the RP-LC retention time was 808 s. For CCc1ccccc1NC(=O)c1sc(-c2cn(C)c3ncccc23)nc1C, the RP-LC retention time was 971 s. O=C(O)c1ccc2c(c1)C(=O)N(Nc1ccccc1[N+](=O)[O-])C2=O gave an RP-LC retention time of 953 s. Cc1cc(NC(=O)c2nc3ccccc3s2)sn1 showed an RP-LC retention time of 809 s. Work on Cc1nc2ccccn2c(=O)c1NC(=O)Nc1cccs1 yielded an RP-LC retention time of 566 s. Compound Cc1cc(-c2nnc(NC(=O)c3ccn(C)n3)o2)c(C)o1 has an RP-LC retention time of 654 s. COc1cccc(CNC(=O)CN2CCc3[nH]c4c(C)c(Cl)ccc4c(=O)c3C2)c1 gave an RP-LC retention time of 636 s. O=C(Cn1ccc2ccc(N3CCOCC3)nc21)NCc1ccc(F)cc1Cl showed an RP-LC retention time of 912 s. With O=c1cc(-c2ccccc2)nc2n1CCN2CCCN1CCOCC1 the RP-LC retention time was 582 s. For Cc1cccc(Sc2nccnc2N2CCCC(C(=O)NCCC(C)C)C2)c1 (centres undefined), the RP-LC retention time was 1140 s. Compound COc1cccc(-n2ccn3cc(-c4cccc(Cl)c4)nc3c2=O)c1 has an RP-LC retention time of 837 s. In the case of Clc1cccc(-c2nc(-c3ccc4c(c3)ncn4CCN3CCOCC3)no2)c1, the RP-LC retention time is reported as 676 s. Work on CCCn1cc(S(=O)(=O)Nc2cc(F)ccc2F)c2cccnc21 yielded an RP-LC retention time of 890 s. O=C(COc1cccc(Cl)c1)N1CCCN(C2CCN(CC3CC3)C2=O)CC1 (centres undefined) gave an RP-LC retention time of 574 s. In the case of Cc1cc(C)cc(C(=O)Nc2cc(-c3ccccn3)no2)c1, the RP-LC retention time is reported as 911 s. Work on O=C(Nc1cccc(F)c1)c1cc(C2CC2)on1 yielded an RP-LC retention time of 956 s. For O=C(c1ccccc1)N1CCCC1c1nc(-c2ccccc2Cl)no1 (centres undefined), the RP-LC retention time was 978 s. For Cc1cccc(NC(=O)C2CCN(S(C)(=O)=O)c3cc(Cl)ccc3O2)c1C (centres undefined), the RP-LC retention time was 1090 s. Work on CS(=O)(=O)c1ccc(NC(=O)C2CN(C(=O)c3ccc(F)c(F)c3)C2)cc1 yielded an RP-LC retention time of 661 s. CCn1c(C)c(CCC(=O)NC(C)C)c(=O)n2nc(-c3ccccc3)nc12 showed an RP-LC retention time of 706 s. Compound CNC(=O)c1ccc(-c2nc3cc(NS(=O)(=O)c4cccc(Cl)c4)ccc3n2C)cc1 has an RP-LC retention time of 653 s. For CCOC(=O)c1c(C)[nH]c(C(=O)N2CCC(C(C)C(=O)NCc3ccc(OC(C)C)cc3)CC2)c1C (centres undefined), the RP-LC retention time was 892 s. Work on Cc1cc2n(n1)CCC(=O)N2CCCC(=O)NCCCOC(C)C yielded an RP-LC retention time of 618 s. CC(C)C(=O)N1CCN(c2ccc(=O)n(-c3ccc(C(C)C)cc3)n2)CC1 gave an RP-LC retention time of 834 s. O=C(Cc1cccc(C(F)(F)F)c1)N1CCN(c2nnc3ccccn23)CC1 gave an RP-LC retention time of 702 s. COc1ccc(Cl)cc1NC(=O)Nc1ccc2c(c1)C(=O)N(C)CCO2 gave an RP-LC retention time of 766 s. With Cc1noc([C@@H]2CC(F)(F)CN2S(=O)(=O)c2ccccc2)n1 the RP-LC retention time was 858 s. Work on CC(CCc1ccccc1)NC(=O)CN1CCCN(Cc2cccc(Cl)c2)S1(=O)=O (centres undefined) yielded an RP-LC retention time of 1120 s. Work on CCc1ccc(CNC(=O)c2cc3n(n2)CC(C)(C(=O)NCc2ccccc2)N(C)C3=O)cc1 (centres undefined) yielded an RP-LC retention time of 832 s. In the case of COc1ccc(C(=O)N2CCCn3cc(-c4ccccc4)nc32)cn1, the RP-LC retention time is reported as 532 s. Work on O=C(CCC(=O)N1CCN(c2ccc(=O)n(-c3ccccc3)n2)CC1)N1CCOCC1 yielded an RP-LC retention time of 612 s. For CC(C)NC(=O)CN1CCN(c2ncc(C(=O)Nc3ccccc3)c(N)n2)CC1, the RP-LC retention time was 609 s. Compound COc1ccc(Nc2nc(N3CCN(c4ccc(F)cc4)CC3)nc3n[nH]nc23)cc1 has an RP-LC retention time of 840 s. Cc1ccccc1OCCCC(=O)Nc1nc(-c2ccc(Br)cc2)cs1 showed an RP-LC retention time of 1280 s. Compound CC(C)CNC(=O)CCc1ccc2nc(-c3ccccc3)[nH]c2c1 has an RP-LC retention time of 618 s. Compound COc1ccc(-c2noc(-c3nnn4c3COC(c3ccc(Cl)cc3)C4)n2)c(OC)c1 (centres undefined) has an RP-LC retention time of 1140 s. Compound CSc1ccc(CNC(=O)CCc2c(-c3ccc(F)cc3)nc3ccccn23)cc1 has an RP-LC retention time of 692 s. With C/C(=N\Nc1nc2ccccc2s1)c1ccncn1 the RP-LC retention time was 895 s. Cc1ccccc1Nc1c(-c2ccccc2)nc2cccc(C)n12 gave an RP-LC retention time of 750 s. Work on CCc1ccccc1NC(=O)N1CCN(C2=CC3=NC(CC)CN3C=N2)CC1 (centres undefined) yielded an RP-LC retention time of 642 s. Work on Cc1cccc(-c2noc(C3CCCN3S(=O)(=O)c3cc(C)ccc3C)n2)c1 (centres undefined) yielded an RP-LC retention time of 1260 s. CCN1C(=O)c2ccccc2Oc2ccc(C(=O)NCc3cc(OC)ccc3OC)cc21 showed an RP-LC retention time of 932 s. In the case of O=C(COc1ccc(F)cc1)N1[C@H]2CC[C@@H]1c1cnc(-c3ccc(F)cc3)nc1C2, the RP-LC retention time is reported as 760 s. With Cc1ccc(CNC(=O)Cn2nc3c(Oc4cc(C)cc(C)c4)nccn3c2=O)cc1 the RP-LC retention time was 943 s. O=C(CCCn1c(=O)c2cccn2c2ccc(F)cc21)NCc1cccs1 showed an RP-LC retention time of 837 s. In the case of CCN1C(=O)C2(CCN(S(=O)(=O)c3cccs3)CC2)c2ccccc21, the RP-LC retention time is reported as 983 s. COc1cccc(CNC(=O)C2(C)CCCN(C(=O)Nc3cc(C)cc(C)c3)C2)c1 (centres undefined) gave an RP-LC retention time of 961 s. In the case of Cc1nnc2ccc(-c3noc(Cc4ccc(Cl)cc4)n3)cn12, the RP-LC retention time is reported as 868 s. COC(=O)C1=CN(c2ccc(C)c(C)c2)c2ccccc2S1(=O)=O showed an RP-LC retention time of 941 s. With COCc1nc(-c2ccc(OC3CNC3)cc2)no1 the RP-LC retention time was 578 s. For O=C(Cc1cccs1)N1CCCC1c1nc(-c2cccc(Cl)c2)no1 (centres undefined), the RP-LC retention time was 1050 s. For COc1ccc(C2(C(=O)N3CCC(Cc4ccc(COc5ccncc5)cc4)CC3)CC2)cc1, the RP-LC retention time was 750 s. Cc1ccc(S(=O)(=O)NC2CCN(c3ncnc4c3CCC4)C2)cc1 (centres undefined) showed an RP-LC retention time of 628 s. For CCNC(=O)C1CCN(S(=O)(=O)c2c(C)[nH]c(C)c2C(=O)N2CCCCC2)CC1, the RP-LC retention time was 624 s. Compound Cc1c(-c2noc(-c3ccc(F)c(F)c3)n2)nnn1Cc1ccccc1 has an RP-LC retention time of 1090 s. COCc1ccc(C(=O)Nc2nnc(C)s2)o1 gave an RP-LC retention time of 595 s. Compound CCc1nc(-c2cn(Cc3ccc(F)cc3)nn2)no1 has an RP-LC retention time of 822 s. CCn1cc(CCN2CCC(C(=O)NC3CCCCC3)CC2)c2cccnc21 gave an RP-LC retention time of 619 s. Cc1nc(NC(=O)N2CCC[C@H]2C(N)=O)sc1-c1csc(C(C)(C)C)n1 showed an RP-LC retention time of 776 s. With CCn1cc(Br)c(C(=O)Nc2ccc(F)c(Cl)c2)n1 the RP-LC retention time was 1020 s. In the case of O=C(NCc1ccc(F)cc1)C1CCN(c2cnc3nccnc3c2)CC1, the RP-LC retention time is reported as 769 s. For CC(=O)c1ccc(NC(=O)CN2C(=O)NC3(CCCCC3)C2=O)cc1, the RP-LC retention time was 717 s. In the case of CC(C)(C)NS(=O)(=O)CCNC(=O)c1ccccc1, the RP-LC retention time is reported as 665 s. With N#Cc1cccc(C(=O)Nc2cnn(-c3ncc(N4CCCC4)cn3)c2)c1 the RP-LC retention time was 777 s. COc1ccc(CN2CCN(C(=O)CCC(=O)N3CCCn4nc(C)cc43)CC2)c(OC)c1OC gave an RP-LC retention time of 595 s. In the case of O=C(NCC1COc2ccccc2O1)c1cc(-c2cccnc2)nc2ccccc12 (centres undefined), the RP-LC retention time is reported as 760 s. Cc1ccc(-c2noc(-c3nn(CC(=O)NC4CCC(C)CC4)c4ccccc34)n2)cc1 (centres undefined) gave an RP-LC retention time of 1300 s. For CCc1nn2c(CNC(=O)C3CCC3)c(-c3ccccc3)nc2s1, the RP-LC retention time was 804 s. CN1C(=O)c2cc(S(=O)(=O)NCc3ccccc3Cl)ccc2Oc2cccnc21 showed an RP-LC retention time of 903 s. With COc1ccc(C2(C(=O)N3CC(n4c(C)cnc4-c4ccccc4)C3)CC2)cc1 the RP-LC retention time was 661 s. Work on Cc1cccc(N(C)C(=O)C2CCCN2S(=O)(=O)c2cc3c(cc2C)NC(=O)CO3)c1 (centres undefined) yielded an RP-LC retention time of 776 s. With Cc1cccc(CNC(=O)c2cc3c(-c4cccs4)nn(-c4ccccc4)c3n2C)c1 the RP-LC retention time was 1200 s. In the case of COc1ccc(-c2cc3c(=O)n(CC(=O)Nc4ccc(C)c(F)c4)ccn3n2)cc1OC, the RP-LC retention time is reported as 780 s. With O=S(=O)(c1cc(F)cc(F)c1)N1CCCC(Cn2c(C3CC3)nc3cccnc32)C1 (centres undefined) the RP-LC retention time was 806 s. COc1cccc(N2CCN(S(=O)(=O)c3cc(-c4nc(C)cs4)cs3)CC2)c1 gave an RP-LC retention time of 1070 s.
